Tested on: female Albino Wistar rats
Assay: Hot plate test (heat induced pain model)
Type: in vivo, rat
Details: comparison between groups

CC(C(=O)O)c1ccc(-c2ccccc2)c(F)c1 (stereo not shown) [FBP, Flurbiprofen]
analgesic effect in the hot plate test (in words): lowest analgesic effect compared to all the other groups except the placebo group
